Laboratory results as given in ChEMBL document CHEMBL1201862, “PubChem BioAssay data set” (2004).
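Protocol summary: plate cells (96-well), add compound at 5 concentrations, incubate 48 h, interpolate endpoints linearly. GI50 is the concentration that inhibits growth by half.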 Activity calls are given as the source filed them. No stated cut-off is given here; in the data, active = GI50 up to about 1.1 µM and inactive = higher.

Experiments:
Assay in all cases: DTP human tumour cell line panel, 48 h
UO-31 = test system: UO-31
U-251 = test system: U-251
A549 = test system: A549
HOP-92 = test system: HOP-92
SF-268 = test system: SF-268
SK-MEL-5 = test system: SK-MEL-5
NCI-H23 = test system: NCI-H23
HT-29 = test system: HT-29
ACHN = test system: ACHN
NCI-H522 = test system: NCI-H522
SW-620 = test system: SW-620
Malme-3M = test system: Malme-3M
SN12C = test system: SN12C
CCRF-CEM = test system: CCRF-CEM
KM12 = test system: KM12
M14 = test system: M14
A498 = test system: A498

Measured: GI50

NC1CC(n2ccc(=O)[nH]c2=O)OC1C(O)CO (centres undefined)
inactive: UO-31 > 100 µM | U-251 > 100 µM | A549 > 100 µM | HOP-92 > 100 µM | SF-268 > 100 µM | SK-MEL-5 > 100 µM | NCI-H23 > 100 µM | HT-29 > 100 µM | ACHN > 100 µM | NCI-H522 > 100 µM | SW-620 > 100 µM | Malme-3M > 100 µM | SN12C > 100 µM | CCRF-CEM > 100 µM | KM12 > 100 µM | M14 > 100 µM

N#CC12CCC(O)C(CC1)C2=O (centres undefined)
inactive: UO-31 > 100 µM | U-251 > 100 µM | A549 > 100 µM | A498 > 100 µM | SF-268 > 100 µM | SK-MEL-5 > 100 µM | NCI-H23 > 100 µM | HT-29 > 100 µM | ACHN > 100 µM | NCI-H522 > 100 µM | Malme-3M > 100 µM | SN12C > 100 µM | CCRF-CEM > 100 µM | KM12 > 100 µM | M14 > 100 µM

COc1cc2c(cc1OC)C(CC1=C(c3ccccc3)CN3CCc4cc(OC)c(OC)cc4C3C1)NCC2 (centres undefined)
inactive: UO-31 11.1 µM | U-251 15.2 µM | A549 17 µM | A498 16.7 µM | SF-268 15 µM | SK-MEL-5 12.4 µM | NCI-H23 23.1 µM | HT-29 10.4 µM | ACHN 24.3 µM | SW-620 17.7 µM | Malme-3M 19.5 µM | SN12C 17.9 µM | CCRF-CEM 14.6 µM | KM12 17.2 µM | M14 21.3 µM

COC(=O)C(Cc1nc2ccccc2nc1O)C(=O)C(=O)Nc1ccc(OC)cc1[N+](=O)[O-] (centres undefined)
inactive: UO-31 > 100 µM | U-251 > 100 µM | A549 > 100 µM | HOP-92 96.2 µM | SF-268 > 100 µM | SK-MEL-5 > 100 µM | NCI-H23 > 100 µM | HT-29 82.8 µM | ACHN > 100 µM | NCI-H522 > 100 µM | SW-620 > 100 µM | Malme-3M > 100 µM | SN12C > 100 µM | CCRF-CEM > 100 µM | KM12 > 100 µM | M14 > 100 µM

Cc1ccc(NC(=O)C(=O)C(C#N)c2nc(-c3ccc(-c4ccccc4)cc3)cs2)c(C)c1 (centres undefined)
inactive: UO-31 > 100 µM | U-251 47.3 µM | A549 > 100 µM | A498 > 100 µM | SF-268 > 100 µM | SK-MEL-5 > 100 µM | ACHN > 100 µM | SW-620 17.4 µM | Malme-3M > 100 µM | SN12C > 100 µM | M14 > 100 µM

N#CC1(c2nc3ccccc3o2)C(=O)C(=O)N(c2ccc(Cl)c(Cl)c2)C(=O)C1=O
inactive: UO-31 > 100 µM | A549 > 100 µM | HOP-92 12.2 µM | SF-268 > 100 µM | SK-MEL-5 > 100 µM | NCI-H23 > 100 µM | HT-29 > 100 µM | ACHN > 100 µM | NCI-H522 > 100 µM | SW-620 > 100 µM | Malme-3M > 100 µM | SN12C > 100 µM | CCRF-CEM 48 µM | KM12 > 100 µM | M14 > 100 µM

CCOC(=O)N[C@@H]1C2CC(=O)C(O2)[C@@H]1OC (some centres undefined)
inactive: UO-31 > 100 µM | U-251 > 100 µM | A549 > 100 µM | HOP-92 > 100 µM | SF-268 > 100 µM | SK-MEL-5 > 100 µM | NCI-H23 > 100 µM | HT-29 > 100 µM | ACHN > 100 µM | NCI-H522 > 100 µM | SW-620 > 100 µM | Malme-3M > 100 µM | SN12C > 100 µM | CCRF-CEM > 100 µM | KM12 > 100 µM | M14 > 100 µM
